Data from patent publication EP4745135A1 (Gluetacs Therapeutics (Shanghai) Co., Ltd., priority 2023, dated 2025).

Assays:
GSPT1 = assay: Western blot, degradation of substrate protein in hPBMCs; assay type: cell-based, Human
[1] = test system: Human multiple myeloma cell (MM.1S); assay: Tumor cell proliferation inhibition (CellTiter-Meiluncell luminescent cell viability assay); settings: for inhibition at 0.01 µM: read-out: Inhibition Rate at 10 nM (%); for IC50: read-out: Inhibitory activity (IC50, nM) on tumor cell proliferation, MM.1S
WEE1 = biological target: T1, WEE1 (Homo sapiens, UniProt P30291+Q96SW2); assay: Western blot, degradation of substrate protein in hPBMCs; assay type: cell-based
T1 construct: effects of the compounds of the present disclosure on the expression of target proteins in cells; endogenous in cells; host or cells: human PBMCs (Milecell Biotechnologies)
T1 sequence (P30291 whole entry): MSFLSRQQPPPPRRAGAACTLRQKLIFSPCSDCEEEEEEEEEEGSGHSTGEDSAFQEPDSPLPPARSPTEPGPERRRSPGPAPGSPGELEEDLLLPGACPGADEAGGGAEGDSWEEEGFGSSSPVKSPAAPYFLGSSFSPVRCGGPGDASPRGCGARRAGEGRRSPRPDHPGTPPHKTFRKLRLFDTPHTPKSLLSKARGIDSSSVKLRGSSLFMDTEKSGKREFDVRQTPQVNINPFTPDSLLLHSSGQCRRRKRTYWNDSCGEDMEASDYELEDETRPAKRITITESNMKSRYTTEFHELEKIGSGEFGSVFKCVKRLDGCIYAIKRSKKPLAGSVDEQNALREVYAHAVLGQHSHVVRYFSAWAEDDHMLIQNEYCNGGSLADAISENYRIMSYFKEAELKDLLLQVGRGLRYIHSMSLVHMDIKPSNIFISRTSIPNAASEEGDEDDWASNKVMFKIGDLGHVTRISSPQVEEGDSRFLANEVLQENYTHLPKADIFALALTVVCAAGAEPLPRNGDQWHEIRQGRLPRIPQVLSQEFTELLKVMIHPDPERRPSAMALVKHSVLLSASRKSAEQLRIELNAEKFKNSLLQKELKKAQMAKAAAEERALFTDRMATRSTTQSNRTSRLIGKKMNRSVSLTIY
T1 sequence (Q96SW2 whole entry): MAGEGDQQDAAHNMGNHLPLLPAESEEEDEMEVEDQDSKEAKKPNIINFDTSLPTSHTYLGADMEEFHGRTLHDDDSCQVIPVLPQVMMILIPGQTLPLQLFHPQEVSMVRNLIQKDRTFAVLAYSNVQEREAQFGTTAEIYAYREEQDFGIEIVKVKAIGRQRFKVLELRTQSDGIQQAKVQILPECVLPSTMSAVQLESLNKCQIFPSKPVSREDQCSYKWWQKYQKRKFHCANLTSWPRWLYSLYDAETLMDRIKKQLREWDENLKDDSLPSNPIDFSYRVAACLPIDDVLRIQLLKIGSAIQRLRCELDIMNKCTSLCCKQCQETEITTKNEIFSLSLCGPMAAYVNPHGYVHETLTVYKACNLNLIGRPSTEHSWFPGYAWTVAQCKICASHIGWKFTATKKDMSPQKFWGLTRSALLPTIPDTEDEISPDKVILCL
T1 sequence (Q16531 whole entry partner): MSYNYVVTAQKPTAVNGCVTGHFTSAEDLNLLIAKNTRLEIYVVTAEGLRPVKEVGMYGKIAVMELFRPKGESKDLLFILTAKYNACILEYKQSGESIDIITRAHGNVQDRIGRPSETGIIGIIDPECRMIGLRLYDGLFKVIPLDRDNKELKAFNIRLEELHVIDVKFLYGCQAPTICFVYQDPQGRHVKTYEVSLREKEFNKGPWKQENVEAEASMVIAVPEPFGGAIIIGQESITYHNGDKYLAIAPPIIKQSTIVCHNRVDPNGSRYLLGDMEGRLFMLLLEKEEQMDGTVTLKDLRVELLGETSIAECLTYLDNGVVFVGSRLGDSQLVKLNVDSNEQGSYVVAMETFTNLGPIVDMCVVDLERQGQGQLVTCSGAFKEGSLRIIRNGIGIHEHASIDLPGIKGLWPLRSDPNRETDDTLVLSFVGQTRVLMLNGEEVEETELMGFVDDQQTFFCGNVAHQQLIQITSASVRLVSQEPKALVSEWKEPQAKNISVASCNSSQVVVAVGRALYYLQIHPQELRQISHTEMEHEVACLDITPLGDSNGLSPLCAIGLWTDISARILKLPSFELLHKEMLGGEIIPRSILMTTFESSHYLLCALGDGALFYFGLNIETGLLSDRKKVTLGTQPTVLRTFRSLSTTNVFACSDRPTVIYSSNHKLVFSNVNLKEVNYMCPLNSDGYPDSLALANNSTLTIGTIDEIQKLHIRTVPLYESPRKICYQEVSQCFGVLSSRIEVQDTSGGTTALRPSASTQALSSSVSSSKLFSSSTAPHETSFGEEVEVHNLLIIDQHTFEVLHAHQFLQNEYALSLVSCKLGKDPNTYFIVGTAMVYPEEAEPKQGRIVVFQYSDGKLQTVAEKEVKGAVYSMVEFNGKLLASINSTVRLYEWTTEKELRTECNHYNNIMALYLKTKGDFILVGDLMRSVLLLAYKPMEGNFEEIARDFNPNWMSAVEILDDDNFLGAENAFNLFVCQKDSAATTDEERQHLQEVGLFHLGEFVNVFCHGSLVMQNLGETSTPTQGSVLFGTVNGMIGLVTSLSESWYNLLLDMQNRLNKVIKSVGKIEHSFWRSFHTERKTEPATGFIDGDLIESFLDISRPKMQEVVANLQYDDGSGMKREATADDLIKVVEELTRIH

IKZF2 = biological target: T2, IKZF2 (Homo sapiens, UniProt Q96SW2+Q9UKS7); assay: as above; assay type: cell-based
T2 construct: effects of the compounds of the present disclosure on the expression of target proteins in cells; endogenous in cells; host or cells: human PBMCs (Milecell Biotechnologies)
T2 sequence (Q9UKS7 whole entry): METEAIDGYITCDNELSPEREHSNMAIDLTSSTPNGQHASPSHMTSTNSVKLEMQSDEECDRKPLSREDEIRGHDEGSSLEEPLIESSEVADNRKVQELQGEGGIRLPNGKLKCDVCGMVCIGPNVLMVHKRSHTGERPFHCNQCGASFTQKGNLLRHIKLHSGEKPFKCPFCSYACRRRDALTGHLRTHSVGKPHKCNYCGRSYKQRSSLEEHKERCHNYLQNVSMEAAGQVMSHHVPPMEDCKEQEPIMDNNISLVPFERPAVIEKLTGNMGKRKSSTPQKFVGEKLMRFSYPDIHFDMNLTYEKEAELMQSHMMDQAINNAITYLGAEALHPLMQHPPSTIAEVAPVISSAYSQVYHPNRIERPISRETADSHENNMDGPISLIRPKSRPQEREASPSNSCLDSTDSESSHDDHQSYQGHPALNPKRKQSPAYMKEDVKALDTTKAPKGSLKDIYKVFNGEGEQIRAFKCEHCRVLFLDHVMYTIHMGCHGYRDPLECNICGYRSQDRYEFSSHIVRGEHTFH
T2 sequence (Q96SW2 whole entry): as the sequence (Q96SW2 whole entry) above
T2 sequence (Q16531 whole entry partner): as the sequence (Q16531 whole entry partner) above

IKZF1 = biological target: T3, IKZF1 (Homo sapiens, UniProt Q13422+Q96SW2); assay: as above; assay type: cell-based
T3 construct: effects of the compounds of the present disclosure on the expression of target proteins in cells; endogenous in cells; host or cells: human PBMCs (Milecell Biotechnologies)
T3 sequence (Q13422 whole entry): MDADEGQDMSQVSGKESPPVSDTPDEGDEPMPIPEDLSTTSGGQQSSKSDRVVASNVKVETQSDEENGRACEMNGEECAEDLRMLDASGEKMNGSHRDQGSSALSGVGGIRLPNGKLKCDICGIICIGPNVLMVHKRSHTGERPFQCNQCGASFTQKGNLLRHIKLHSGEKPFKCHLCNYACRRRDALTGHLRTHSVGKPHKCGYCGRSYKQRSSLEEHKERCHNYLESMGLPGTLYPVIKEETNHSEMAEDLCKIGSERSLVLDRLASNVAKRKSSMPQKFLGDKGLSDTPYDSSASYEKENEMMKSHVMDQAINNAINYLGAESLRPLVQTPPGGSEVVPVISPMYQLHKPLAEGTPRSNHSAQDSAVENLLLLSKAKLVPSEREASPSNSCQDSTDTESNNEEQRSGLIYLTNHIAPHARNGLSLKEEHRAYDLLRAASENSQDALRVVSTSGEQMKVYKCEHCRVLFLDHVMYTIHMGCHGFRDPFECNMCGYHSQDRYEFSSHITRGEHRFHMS
T3 sequence (Q96SW2 whole entry): as the sequence (Q96SW2 whole entry) above
T3 sequence (Q16531 whole entry partner): as the sequence (Q16531 whole entry partner) above

CK1α = biological target: T4, CK1α (Homo sapiens, UniProt P48729+Q96SW2); assay: as above; assay type: cell-based
T4 construct: effects of the compounds of the present disclosure on the expression of target proteins in cells; endogenous in cells; host or cells: human PBMCs (Milecell Biotechnologies)
T4 sequence (P48729 whole entry): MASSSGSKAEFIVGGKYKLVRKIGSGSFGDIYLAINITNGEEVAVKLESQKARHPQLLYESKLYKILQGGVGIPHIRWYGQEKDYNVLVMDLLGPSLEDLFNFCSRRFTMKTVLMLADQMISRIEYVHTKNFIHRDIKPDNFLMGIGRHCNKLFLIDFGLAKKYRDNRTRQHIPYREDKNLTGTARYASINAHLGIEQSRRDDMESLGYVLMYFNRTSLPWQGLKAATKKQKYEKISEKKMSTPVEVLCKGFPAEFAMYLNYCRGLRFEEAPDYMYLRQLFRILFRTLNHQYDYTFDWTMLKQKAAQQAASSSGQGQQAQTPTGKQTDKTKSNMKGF
T4 sequence (Q96SW2 whole entry): as the sequence (Q96SW2 whole entry) above
T4 sequence (Q16531 whole entry partner): as the sequence (Q16531 whole entry partner) above

IKZF3 = biological target: T5, IKZF3 (Homo sapiens, UniProt Q96SW2+Q9UKT9); assay: as above; assay type: cell-based
T5 construct: effects of the compounds of the present disclosure on the expression of target proteins in cells; endogenous in cells; host or cells: human PBMCs (Milecell Biotechnologies)
T5 sequence (Q9UKT9 whole entry): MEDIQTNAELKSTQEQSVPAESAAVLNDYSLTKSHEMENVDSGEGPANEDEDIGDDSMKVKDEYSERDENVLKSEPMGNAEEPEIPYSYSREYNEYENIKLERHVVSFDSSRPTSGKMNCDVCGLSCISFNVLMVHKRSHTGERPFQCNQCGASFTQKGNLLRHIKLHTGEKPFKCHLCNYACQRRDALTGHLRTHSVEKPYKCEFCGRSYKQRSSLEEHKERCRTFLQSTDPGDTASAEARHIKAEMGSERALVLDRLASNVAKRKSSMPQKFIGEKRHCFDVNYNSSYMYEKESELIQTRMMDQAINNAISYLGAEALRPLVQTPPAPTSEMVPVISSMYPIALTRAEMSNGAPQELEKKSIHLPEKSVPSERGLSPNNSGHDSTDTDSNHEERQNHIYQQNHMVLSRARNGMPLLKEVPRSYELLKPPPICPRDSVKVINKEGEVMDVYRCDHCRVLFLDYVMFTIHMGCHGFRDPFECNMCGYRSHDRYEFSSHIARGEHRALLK
T5 sequence (Q96SW2 whole entry): as the sequence (Q96SW2 whole entry) above
T5 sequence (Q16531 whole entry partner): as the sequence (Q16531 whole entry partner) above

[2] = biological target: T6, human Cereblon WT GST-tagged protein (Homo sapiens, UniProt Q96SW2); assay: CRBN-binding affinity, HTRF (CEREBLON BINDING kit); settings: for IC50: CRBN binding, HTRF, 3 hours at room temperature, read-out: HTRF IC50
T6 construct: purchased CISBIO 64BDCRBNPEH
T6 sequence (Q96SW2 whole entry): as the sequence (Q96SW2 whole entry) above

[3] = Western blot, 24 hours of compound treatment, compounds tested at 50 nM and 500 nM (concentration for the table not stated)
[4] = 24 hours treatment, compounds at 50 nM and 500 nM (concentration behind the class not stated)

| Compound | GSPT1 substrate protein remaining % (GSPT1; [3]) | inhibition at 0.01 µM ([1]; Homo sapiens, MM1.S, 96 h) | Inhibition Rate at 500 nM (%) ([1]; MM.1S, 500 nM, 96 hours) | Wee1 substrate protein remaining % (WEE1; [3]) | IKZF2 substrate protein remaining % (IKZF2; [3]) | IKZF 1 substrate protein remaining % (IKZF1; [3]) | CK1α substrate protein remaining % (CK1α; [3]) | IKZF3 substrate protein remaining % (IKZF3; [3]) | inhibition at 0.5 µM ([2]; read-out: Inhibition Rate at 0.5 µM (%)) | inhibition at 2 µM ([2]; read-out: Inhibition Rate at 2 µM (%)) | GSPT1 substrate protein remaining % (GSPT1; [4]) | inhibition at 0.5 µM ([1]; Homo sapiens, MM1.S, 96 h, read-out: Inhibition Rate at 500 nM (%)) | Wee1 substrate protein remaining % (WEE1; [4]) | IKZF2 substrate protein remaining % (IKZF2; [4]) | IKZF 1 substrate protein remaining % (IKZF1; [4]) | CK1α substrate protein remaining % (CK1α; [4]) | IKZF3 substrate protein remaining % (IKZF3; [4]) | IC50 [2] | IC50 ([1]; Homo sapiens, MM1.S, 96 h) |
| --- | --- | --- | --- | --- | --- | --- | --- | --- | --- | --- | --- | --- | --- | --- | --- | --- | --- | --- | --- |
| O=C1CCC(N2Cc3c(CN4C5CC4CN(c4cccc(Cl)c4Cl)C5)cccc3C2=S)C(=O)N1 (stereo not shown) [GT-08465, 3-(4-((3-(2,3-dichlorophenyl)-3,6-diazabicyclo[3.1.1]heptan-6-yl)methyl)-1-thioxoisoindolin-2-yl)piperidine-2,6-dione] | A (0% ≤ substrate protein remaining % ≤ 80%) | 40 to 50% | la5 | B (80%< substrate protein remaining %≤ 100%) | B (80%< substrate protein remaining %≤ 100%) | B (80%< substrate protein remaining %≤ 100%) | B (80%< substrate protein remaining %≤ 100%) | B (80%< substrate protein remaining %≤ 100%) | 40 to 53% | 60 to 80% | – | – | – | – | – | – | – | – | – |
| O=C1CC[C@H](N2Cc3c(OCc4ccc(CN5CCOCC5)cc4)cccc3C2=S)C(=O)N1 [GT-05712, (S)-3-(4-((4-(morpholinomethyl)benzyl)oxy)-1-thioxoisoindolin-2-yl)piperidine-2,6-dione] | – | 50 to 60% | – | – | – | – | – | – | – | – | A (0% ≤ substrate protein remaining % ≤ 80%) | 70 to 80% | B (80%< substrate protein remaining %≤ 100%) | B (80%< substrate protein remaining %≤ 100%) | A (0% ≤ substrate protein remaining % ≤ 80%) | B (80%< substrate protein remaining %≤ 100%) | A (0% ≤ substrate protein remaining % ≤ 80%) | < 100 nM | – |
| Cc1cscc1C1CCN(Cc2ccc3c(c2)CN(C2CCC(=O)NC2=O)C3=S)CC1 (stereo not shown) [GT-05146, 3-(5-((4-(4-methylthiophen-3-yl)piperidin-1-yl)methyl)-1-thioxoisoindolin-2-yl)piperidine-2,6-dione] | A (0% ≤ substrate protein remaining % ≤ 80%) | – | – | A (0% ≤ substrate protein remaining % ≤ 80%) | B (80%< substrate protein remaining %≤ 100%) | A (0% ≤ substrate protein remaining % ≤ 80%) | B (80%< substrate protein remaining %≤ 100%) | B (80%< substrate protein remaining %≤ 100%) | – | – | – | – | – | – | – | – | – | 100 to 500 nM | 100 to 500 nM |
| O=C1CCC(N2Cc3cc(CN4CCC(N5CCc6cc(F)ccc65)CC4)ccc3C2=S)C(=O)N1 (stereo not shown) [GT-05244, 3-(5-((4-(5-fluoroindolin-1-yl)piperidin-1-yl)methyl)-1-thioxoisoindolin-2-yl)piperidine-2,6-dione] | A (0% ≤ substrate protein remaining % ≤ 80%) | – | – | B (80%< substrate protein remaining %≤ 100%) | A (0% ≤ substrate protein remaining % ≤ 80%) | B (80%< substrate protein remaining %≤ 100%) | B (80%< substrate protein remaining %≤ 100%) | B (80%< substrate protein remaining %≤ 100%) | – | – | – | – | – | – | – | – | – | 100 to 500 nM | 100 to 500 nM |
| O=C1CCC(N2Cc3cc(CN4C[C@@H]5C[C@H]4CN5c4cccc(Cl)c4Cl)ccc3C2=S)C(=O)N1 (stereo partly drawn) [GT-05183, 3-(5-(((1S,4S)-5-(2,3-dichlorophenyl)-2,5-diazabicyclo[2.2.1]heptan-2-yl)methyl)-1-thioxoisoindolin-2-yl)piperidine-2,6-dione] | A (0% ≤ substrate protein remaining % ≤ 80%) | – | – | B (80%< substrate protein remaining %≤ 100%) | B (80%< substrate protein remaining %≤ 100%) | B (80%< substrate protein remaining %≤ 100%) | B (80%< substrate protein remaining %≤ 100%) | A (0% ≤ substrate protein remaining % ≤ 80%) | – | – | – | – | – | – | – | – | – | 100 to 500 nM | 50 to 100 nM |
